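GI50 marks 50% less growth. The concentration for full growth arrest is given as TGI.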
Key:
Assay in all cases: inhibition of tumour cell growth, NCI panel, 384-well format
[1] = test system: U251 glioblastoma
[2] = test system: SNB-75 CNS
[3] = test system: A549 NSCLC
[4] = test system: SR leukemia
[5] = test system: HOP-92 NSCLC
[6] = test system: CCRF-CEM leukemia
[7] = test system: SW-620 colon
[8] = test system: HCT-116 colon
[9] = test system: MALME-3M melanoma
[10] = test system: NCI-H522 lung
[11] = test system: UO-31 renal
[12] = test system: SF-268 CNS
[13] = test system: OVCAR-5 ovarian

Q: How did the GI50 [1] turn out when `COc1nn(C)cc1Nc1nccc(-c2c[nH]c3c(NC(=O)[C@@H](C)N4CCN(C)CC4)cccc23)n1` was run?
A: 27.8 µM

Q: What about the TGI [1] of the same molecule?
A: 75.8 µM

Q: And the GI50 [2]?
A: 17.7 µM

Q: What about the TGI [2] of the same molecule?
A: 32 µM

Q: And the GI50 [3]?
A: 25.7 µM

Q: What about the TGI [3] of the same molecule?
A: > 59.9 µM

Q: And the GI50 [4]?
A: 9.69 µM

Q: What about the TGI [4] of the same molecule?
A: 21.5 µM

Q: What about the GI50 [5] of the same molecule?
A: 20.4 µM

Q: And the TGI [5]?
A: 47.6 µM

Q: What about the GI50 [6] of the same molecule?
A: 15.9 µM

Q: What about the TGI [6] of the same molecule?
A: 29.4 µM

Q: And the GI50 [7]?
A: 21 µM

Q: What about the TGI [7] of the same molecule?
A: 40.3 µM

Q: And the GI50 [8]?
A: 19.8 µM

Q: What about the TGI [8] of the same molecule?
A: 43.2 µM

Q: What about the GI50 [9] of the same molecule?
A: 14.9 µM

Q: And the TGI [9]?
A: 29.2 µM

Q: And the GI50 [10]?
A: 10.2 µM

Q: And the TGI [10]?
A: 26.5 µM

Q: And the GI50 [11]?
A: 17.3 µM

Q: And the TGI [11]?
A: 32.5 µM

Q: What about the GI50 [12] of the same molecule?
A: 18.4 µM

Q: And the TGI [12]?
A: 37 µM

Q: And the GI50 [13]?
A: 25.1 µM

Q: And the TGI [13]?
A: 65.2 µM

— PubChem BioAssay (NCI)
